Experimental data taken from US7709511B2, “Benzothiazolone derivatives” (AstraZeneca AB, priority 2005, dated 2010).
Where a name gives a salt, the structure may show the parent alone.

What was measured:
[1] = biological target: T1, Adrenergic β2 (Homo sapiens, UniProt P07550); experiment: Alternative adrenergic β2 mediated cAMP production in H292 cells (AlphaScreen cAMP detection); format: cell-based; details: for EC50: cAMP, test compounds incubated 60 minutes at room temperature, 300 μM rolipram, read-out: β2 pEC50 (converted); for β2 Int Act: fraction relative to the maximum activity determined for formoterol, 60 minutes incubation
T1 construct: endogenous in cells; host or cells: H292 cells
T1 sequence (P07550 whole entry): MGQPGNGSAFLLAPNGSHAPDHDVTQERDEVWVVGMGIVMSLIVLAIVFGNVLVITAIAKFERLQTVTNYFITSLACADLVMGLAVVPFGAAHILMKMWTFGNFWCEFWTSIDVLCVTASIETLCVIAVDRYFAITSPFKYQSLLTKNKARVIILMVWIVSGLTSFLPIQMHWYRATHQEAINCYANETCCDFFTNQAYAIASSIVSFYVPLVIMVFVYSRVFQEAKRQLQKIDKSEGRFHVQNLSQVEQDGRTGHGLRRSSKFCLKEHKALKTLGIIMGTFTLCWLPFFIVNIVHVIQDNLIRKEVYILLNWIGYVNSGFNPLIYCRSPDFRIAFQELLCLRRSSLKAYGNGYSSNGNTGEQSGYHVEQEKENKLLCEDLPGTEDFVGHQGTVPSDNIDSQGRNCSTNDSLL
Protocol: Alternative Adrenergic β2 Mediated cAMP Production Cell Preparation
H292 cells were grown in 225 cm2 flasks incubator at 37° C., 5% CO2 in RPMI medium containing, 10% (v/v) FBS (foetal bovine serum) and 2 mM L-glutamine.
Adherent H292 cells were removed from tissue culture flasks by treatment with Accutase™ cell detachment solution for 15 minutes. Flasks were incubated for 15 minutes in a humidified incubator at 37° C., 5% CO2. Detached cells were re-suspended in RPMI media (containing 10% (v/v) FBS and 2 mM L-glutamine) at 0.05×10^6 cells per mL. 5000 cells in 100 μL were added to each well of a tissue-culture-treated 96-well plate and the cells incubated overnight in a humidified incubator at 37° C., 5% CO2. The culture media was removed and cells were washed twice with 100 μL assay buffer and replaced with 50 μL assay buffer (HBSS solution containing 10 mM HEPES pH7.4 and 5 mM glucose). Cells were rested at room temperature for 20 minutes after which time 25 μL of rolipram (1.2 mM made up in assay buffer containing 2.4% (v/v) dimethylsulphoxide) was added. Cells were incubated with rolipram for 10 minutes after which time test compounds were added and the cells were incubated for 60 minutes at room temperature. The final rolipram concentration in the assay was 300 μM and final vehicle concentration was 1.6% (v/v) dimethylsulphoxide. The reaction was stopped by removing supernatants, washing once with 100 μL assay buffer and replacing with 50 μL lysis buffer. The cell monolayer was frozen at −80° C. for 30 minutes (or overnight).
AlphaScreen™ cAMP Detection
The concentration of cAMP (cyclic adenosine monophosphate) in the cell lysate was determined using AlphaScreen™ methodology. The frozen cell plate was thawed for 20 minutes on a plate shaker then 10 μL of the cell lysate was transferred to a 96-well white plate. 40 μL of mixed AlphaScreen™ detection beads pre-incubated with biotinylated cAMP, was added to each well and the plate incubated at room temperature for 10 hours in the dark. The AlphaScreen™ signal was measured using an EnVision spectrophotometer (Perkin-Elmer Inc.) with the recommended manufacturer's settings. cAMP concentrations were determined by reference to a calibration curve determined in the same experiment using standard cAMP concentrations. Concentration response curves for agonists were constructed and data was fitted to a four parameter logistic equation to determine both the pEC50 and Intrinsic Activity. Intrinsic Activity was expressed as a fraction relative to the maximum activity determined for formoterol in each experiment.

[2] = biological target: T2, recombinant human adrenergic beta 1 receptors (Homo sapiens, UniProt P08588); experiment: Adrenergic β1 selectivity assay, inhibition of [125I]-Iodocyanopindolol binding to membranes; details: [125I]-Iodocyanopindolol 0.036 nM; read-out: β1 bind p IC50 (converted)
T2 construct: purchased Euroscreen
T2 sequence (P08588 whole entry): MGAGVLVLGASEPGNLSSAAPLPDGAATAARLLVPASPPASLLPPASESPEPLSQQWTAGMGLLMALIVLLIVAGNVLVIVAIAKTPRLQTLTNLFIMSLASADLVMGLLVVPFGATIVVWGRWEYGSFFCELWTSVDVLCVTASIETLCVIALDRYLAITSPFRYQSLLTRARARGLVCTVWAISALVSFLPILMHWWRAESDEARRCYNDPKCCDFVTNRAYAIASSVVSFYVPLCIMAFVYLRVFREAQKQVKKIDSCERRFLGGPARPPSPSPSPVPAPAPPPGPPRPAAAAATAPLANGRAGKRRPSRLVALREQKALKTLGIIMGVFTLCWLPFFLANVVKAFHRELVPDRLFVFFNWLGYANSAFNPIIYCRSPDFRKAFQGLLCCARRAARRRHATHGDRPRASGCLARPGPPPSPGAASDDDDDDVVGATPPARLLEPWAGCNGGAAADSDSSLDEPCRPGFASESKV
Protocol: Membranes containing recombinant human adrenergic beta 1 receptors were obtained from Euroscreen. These were diluted in Assay Buffer (50 mM HEPES, 1 mM EDTA, 120 mM NaCl, 0.1% gelatin, pH 7.4) to provide a final concentration of membranes that gave a clear window between maximum and minimum specific binding.
Assays were performed in U-bottomed 96-well polypropylene plates. 10 μL [^125I]-Iodocyanopindolol (0.036 nM final concentration) and 10 μL of test compound (10× final concentration) were added to each test well. For each assay plate 8 replicates were obtained for [^125I]-Iodocyanopindolol binding in the presence of 10 μL vehicle (10% (v/v) DMSO in Assay Buffer; defining maximum binding) or 10 μL Propranolol (10 μM final concentration; defining non-specific binding (NSB)). Membranes were then added to achieve a final volume of 100 μL. […] Five washes with 250 μL wash buffer (50 mM HEPES, 1 mM EDTA, 120 mM NaCl, pH 7.4) were performed at 4° C. to remove unbound radioactivity. […] The plates were sealed (TopSeal A) and filter-bound radioactivity was measured with a scintillation counter (TopCount, Packard BioScience) using a 3-minute counting protocol.
Total specific binding (B0) was determined by subtracting the mean NSB from the mean maximum binding. […]

| SMILES | EC50 [1] [nM] | β2 Int Act [1] | IC50 [2] [nM] |
| --- | --- | --- | --- |
| CCN(CC)CCN(CCNCCc1ccc(O)c2[nH]c(=O)sc12)C(=O)CCOCCc1ccc(Cl)cc1 [Example 26, 3-[2-(4-Chlorophenyl)ethoxy]-N-(2-diethylaminoethyl)-N-{2-[2-(4-hydroxy-2-oxo-2,3-dihydro-1,3-benzothiazol-7-yl)ethylamino]ethyl}propanamide dihydrobromide] | 15.8 | 0.6 | 1000 |
| CCN(CC)CCN(CCNCCc1ccc(O)c2[nH]c(=O)sc12)C(=O)CCOCCc1cccc(C)c1 [Example 28, N-[2-(Diethylamino)ethyl]-N-(2-{[2-(4-hydroxy-2-oxo-2,3-dihydro-1,3-benzothiazol-7-yl)ethyl]amino}ethyl)-3-[2-(3-methylphenyl)ethoxy]propanamide] | 3.16 | 0.6 | 1000 |
